This is an account of results in a melting point compilation (Tetko et al.; mined from patent text by program, amines drawn as free bases though some values may be those of a salt).

The melting point is the temperature, or range, at which the solid turns liquid. Compound `COc1ccc2c(=O)c3[nH]c(C(=O)O)cc(=O)c3oc2c1` gave a melting point of 253 to 254 °C.

Consider `CC(Cn1ccnn1)n1nnc2cc3c(=O)n(C(C)Cn4ccnn4)nnc3cc2c1=O` (configuration not stated), for which the melting point is 192 to 195 °C.

In the case of `CCC(C)CNC(=O)c1cc(NC(=O)OCc2ccccc2)cc(C(=O)NCC(C)CC)c1` (configuration not stated), the melting point was 130 to 132 °C.

On to `CCCc1c(OCCCCCC(=O)c2ccc3cc(O)c(O)cc3c2)ccc(C(=O)OCC)c1O`, for which the melting point was 170 to 172 °C.

The compound `I/C(=C/C=C(/I)SCc1ccccc1)SCc1ccccc1` yielded a melting point of 111 to 112 °C.

As to `CCOC(=O)CC1OC(=O)c2c(Oc3nc(OC)cc(OC)n3)cccc21` (configuration not stated), the melting point is 150 to 152 °C.

Compound `CC(C)OC(=O)COc1ccc(NC(=O)NC(=O)c2ccc(C(N)=S)cc2)cc1` showed a melting point of 224 to 227 °C.

Consider `COC(=O)c1ccc(CN([C@@H](CO)Cc2ccccc2)S(=O)(=O)c2ccc(Cl)cc2)cc1`, for which the melting point lay within 128 to 130 °C.

`COC(=O)CCC(O)C(=O)OC(C)(C)C` (configuration not stated) displayed a melting point of 36 to 37 °C.

Compound `Cc1cc(-c2ncn3c(C(F)(F)F)cc(-c4ccc(Cl)cc4)nc23)ccn1` came in with a melting point of 232 °C.

`Cc1on(C(=O)N(Cc2ccccc2)c2ccccc2)c(=O)c1Cl` showed a melting point of 118 to 119 °C.

Compound `COC(=O)C1C(=O)CCC1CC#N` (configuration not stated) showed a melting point of 49 to 50 °C.

For the compound `OC(CCl)(Cc1ccccc1)c1ccc(-c2ccccc2)cc1` (configuration not stated), the melting point was 96 °C.

For the compound `CCCCCCCCOC(=O)c1cc(C(C)(C)C)c(OC(=O)c2cc(C(C)(C)C)c(O)c(C(C)(C)C)c2)c(C(C)(C)C)c1`, the melting point lay in the range of 94 to 97 °C.

In turn, `CC(C)(C)NC(=O)CN1C(=O)C(NC(=O)Nc2cccc(Cl)c2)CC(C2CCCCC2)c2ccccc21` (configuration not stated) had a melting point of 223 to 226 °C.

For the compound `Cc1cc2c(N=C3SC[C@@H]4Cc5ccccc5CN34)cccc2cn1`, the melting point stood at 181 °C.

Compound `COc1cc(N)c(Cl)cc1C(=O)NCC1CCN(CCCCCCC(=O)c2ccc(Cl)cc2)CC1` yielded a melting point of 137 to 138 °C.

The compound `Cc1oc(C(N)=O)c(C)c1-c1nc2ccc(Oc3ccccc3)cc2[nH]1` gave a melting point of 248 to 251 °C.

`CCOC(=O)C(C)=Cc1cn(Cc2ccc(C(=O)OC(C)(C)C)cc2OC)c2cc(C(=O)NCC3CCCC3)ccc12` showed a melting point of 118 to 120 °C.

Compound `FC(F)(F)c1ccc2c(c1)C(Cl)Cc1c(Cl)cccc1S2` (configuration not stated) showed a melting point of 88 to 90 °C.

Turning to `C#CC1C2=C(c3ccc(OCc4ccccc4)cc3N1C(=O)Oc1ccccc1)C(O[Si](C)(C)C(C)(C)C)CCC2` (configuration not stated), the melting point lay in the range of 76.5 to 78.2 °C.

The compound `CCON=C(C(=O)OCC)c1csc(NC(c2ccccc2)(c2ccccc2)c2ccccc2)n1` returned a melting point of 165 °C.

With `CCCN1N=C(c2ccc(F)cc2)c2cc(Cl)ccc2CS1(=O)=O`, the melting point was found to be 122 °C.

As to `OCC1(CO)COCCNCCOCCCOCCNCCO1`, the melting point fell in the range of 137 to 140 °C.

Compound `CC(C)(C)c1cc(NC(=O)c2cccc(C#N)c2)cc(C(C)(C)C)c1O` showed a melting point of 219 to 222 °C.

Consider `S=C(Cc1ccccc1)c1ccccc1`, for which the melting point fell in the range of 52 to 53 °C.

As for `CCOC(=O)c1cn(Cc2cccnc2)nc1O`, the melting point lay in the range of 148 to 149 °C.

Compound `CCn1c(=O)sc2cc([N+](=O)[O-])ccc21` displayed a melting point of 200 to 203 °C.

Compound `O=c1[nH]c2ccc(C(F)(F)F)cc2c(-c2cc(Cl)ccc2O)c1NS(=O)(=O)C(F)(F)F` returned a melting point of 268 to 270 °C.

`COc1ccc(C=O)cc1C(=O)NCc1ccc(C(F)(F)F)cc1` registered a melting point of 116 to 117 °C.

Consider `Clc1cnc2cc(Cl)c(Cl)cc2n1`, for which the melting point was 137 °C.

As to `Nc1ccc(CCNCCCCCCNCCc2ccc(O)c(O)c2)cc1`, the melting point is greater than 250 °C.

Take `O=C(NCCn1cc(Cn2ccnc2)c2ccccc21)Nc1ccccc1`: the melting point lay within 198 to 199 °C.

Consider `COC(=O)c1cc(OCc2ccccc2)nn1-c1ccccc1`, for which the melting point was in the range of 53 to 54 °C.

In the case of `CC1C(=O)OC2=C(CSc3ccccc32)C1=O` (configuration not stated), the melting point is 275 to 277 °C.

`COc1cc(OC)nc(Cc2ccccc2[N+](=O)[O-])n1` returned a melting point of 92 to 93 °C.

For the compound `CCCCCCCCCCCCCCCCS(=O)(=O)OCc1cc(OC)c(OC)cc1[N+](=O)[O-]`, the melting point lay within 81 to 82 °C.

The compound `CCN1C(=O)C(C)(C)C(=O)N(C)c2cc(CN(CCn3ccc4oc(C)cc4c3=O)Cc3cc(COC)nn3C)ccc21` gave a melting point of 113 to 115 °C.

`O=C(CCCCCCCNC(=O)OCc1ccccc1)Nc1cccc(C(=O)O)c1` registered a melting point of 167 to 168 °C.

Turning to `Cc1ccc(C(=O)NC/C=C\COc2cc(CN3CCCCC3)ccn2)s1`, the melting point lay within 71 to 73 °C.

Consider `O=C(O)CCCCSc1nc2c(F)c(F)cc(F)c2s1`, for which the melting point was 56 to 58 °C.

`COc1cc2c(cc1OCCN(C)C)N(C(=O)c1ccc(-c3ccc(-c4noc(C)n4)cc3C)cc1)CCC2` displayed a melting point of 139 to 141 °C.

With `O=C(O)C1CC1(C(=O)O)c1cccc([N+](=O)[O-])c1` (configuration not stated), the melting point lay within 167 to 170 °C.

The compound `CNc1nc2c(C)cccc2c2c1ccn2-c1ccccc1C` came in with a melting point of 129 to 130 °C.

`CN1CCC[C@H]1c1ccc(Cl)cc1P(c1cccc2ccccc12)c1cccc2ccccc12` registered a melting point of 224 to 226 °C.

`O=c1cnc2c(NCCO)nc(SCc3cccc(Cl)c3F)nc2[nH]1` had a melting point of 195 to 196 °C.

The compound `N#CCCNC(=O)c1cccc(-c2ccc3c(c2)N(c2ccc(Cl)cc2Cl)CCO3)c1` displayed a melting point of 147 to 148 °C.

The compound `Nc1cccc(-c2ccc(CCN3CCN(C(=O)Cc4ccccc4)CC3)cc2)n1` had a melting point of 135 to 137 °C.

In turn, `CCCCc1oc2ccccc2c1C(=O)NCc1ccc2c(-c3ccc(OC)cc3)c(O)ccc2c1` came in with a melting point of 118 to 122 °C.

Compound `COCCc1nc2c(N)nc3ccccc3c2n1CCCNC(=O)OC(C)(C)C` gave a melting point of 174 to 176 °C.

For `O=C(NC(Cc1ccccc1)C(=O)C(F)F)c1ccccc1` (configuration not stated), the melting point is 136 °C.

In turn, `CCNC(=O)c1nc(-c2ccc(C)c(C)c2)n(-c2cc(Cl)ccc2C)c1-c1cccc(Cl)c1` returned a melting point of 141 to 143 °C.

Regarding `COC(=O)[C@@H](O)[C@H](CC(C)C)NC(=O)OC(C)(C)C`, the melting point lay within 84 to 85 °C.

Consider `COC(=O)c1ccc(OC(=O)CCCCCCCCC(=O)Oc2ccc(C(=O)OC)cc2)cc1`, for which the melting point stood at 110 °C.

The compound `COC(=O)c1cc(SC(=O)N(C)C)cc(SC(=O)N(C)C)c1` returned a melting point of 128 to 130 °C.

In turn, `O=Cc1ccc(Cl)c(-c2ccccc2)c1` returned a melting point of 84 °C.

`CCOC(=O)CC(=O)Nc1nc(-c2ccc(OC)cc2)c(-c2cccnc2)s1` came in with a melting point of 202 to 203 °C.

The compound `Cc1cc(C(=O)CC(=O)C(F)(F)F)c(F)cc1Cl` displayed a melting point of 59 to 60 °C.

`CCn1cc(C(=O)O)c(=O)c2cc(F)c(N3CCNC(c4cc(C)sc4C)C3)cc21` (configuration not stated) showed a melting point of 248 to 250 °C.

For `CC(=O)Nc1nc2c(Oc3cc(-c4ccc(C(F)(F)F)cc4O)ncn3)cccc2s1`, the melting point was in the range of 302 to 304 °C.

For `Cc1ccc(C(=O)C2=C(O)C(=O)N(c3ccc(N(C)C)nn3)C2c2ccc(C(C)C)cc2)cc1` (configuration not stated), the melting point turned out to be 281 °C.

On to `CCC1CCC2C3CC=C4CCCCC4(C)C3CCC12C` (configuration not stated), for which the melting point lay in the range of 104 to 106 °C.

As for `COc1cc(O)c(C(=O)C=Cc2ccc(O)c(OC)c2)c(OC)c1`, the melting point was 177 °C.

With `Cn1cc(SC(F)(F)F)c(N)n1`, the melting point lay in the range of 138 to 140 °C.

The compound `COc1cc(OC)nc(NC(=O)NS(=O)(=O)Oc2ccccc2C(=O)OCCCl)n1` showed a melting point of 148 to 150 °C.

The compound `N#Cc1ccc(Nc2nc(Cc3c(Cl)cccc3Cl)cc(NC(=O)CN3CCCCC3)n2)cc1` returned a melting point of 175 to 180 °C.

`CCc1nc2c(c(C)c(C)n3nnnc23)n1CCOCCN1CCCS1(=O)=O`: the melting point fell in the range of 176 to 178 °C.

`CCOC(=O)c1cnn(C)c1C(=O)Nc1ccn2nc(N3CCCC3)nc2c1` displayed a melting point of 233 to 234 °C.

The compound `CN1C(=O)Cc2cc(F)ccc21` returned a melting point of 128 to 130 °C.

The compound `CCOC(=O)C(CCCCCCCCCCCCC(C(=O)O)C1CC1)C1CC1` (configuration not stated) returned a melting point of 36.9 to 38.2 °C.

The compound `CC(=O)Oc1cc(/C=C/c2ccc(OC(=O)C(C)(C)Oc3ccc(C(=O)c4ccc(Cl)cc4)cc3)cc2)cc(OC(C)=O)c1` had a melting point of 112 to 113 °C.

In turn, `N#Cc1nc2c(nc1N)CCCC2` registered a melting point of 200 to 202 °C.

The compound `CCOC1(c2nc3ccccc3s2)C=CC(=O)C=C1` returned a melting point of 59 °C.

`CCC(=O)N(CC)c1cccc(-c2ccc3nncn3n2)c1` came in with a melting point of 127 to 130 °C.

Compound `O=C1N(Cc2ccc(F)cn2)c2ccccc2C12COc1cc3c(cc12)OCCO3` (configuration not stated) gave a melting point of 174 to 176 °C.

In the case of `CN(C1CCS(=O)(=O)C1)S(=O)(=O)c1ccc(Nc2nccc(Nc3ccc(F)cc3)n2)cc1` (configuration not stated), the melting point was in the range of 236 to 240 °C.

As for `CC(=O)OCCCc1cc(C=C2SC(=S)N(C)C2=O)cc(CCCOC(C)=O)c1O`, the melting point is 151 to 155 °C.

`CCOC(=O)CNc1cnc(-c2ccc(OCc3ccccc3)c(C34CC5CC(CC(C5)C3)C4)c2)nc1` gave a melting point of 153 to 156 °C.

In turn, `Cc1cc(C)c2c(c1O)C(N)C(c1ccccc1)C2` (configuration not stated) had a melting point of 135 to 136 °C.

In the case of `O=C(CCCCCc1cccc2cncn12)NO`, the melting point lay within 138 to 140 °C.

Compound `O=C(O)C1=C(c2ccccc2)c2cc(Cl)ccc2OC1C(F)(F)F` (configuration not stated) had a melting point of 226 to 227 °C.

For the compound `CCN1C(=O)CCCc2cc(Nc3ncc(Cl)c(Nc4ccc(N5CCOCC5)cc4OC)n3)c(OC)cc21`, the melting point lay within 212 to 214 °C.

Regarding `CCCc1c(OCC(O)COc2cccc(N)c2)ccc(C(C)=O)c1O` (configuration not stated), the melting point lay in the range of 85 to 89 °C.

Compound `Cc1noc(NS(=O)(=O)c2ccc(-c3ccc(C(F)(F)F)cc3)s2)c1Br` yielded a melting point of 132 °C.

For the compound `NC1CC2CCCC(C1)N2Cc1ccccc1` (configuration not stated), the melting point worked out at 134 °C.

For the compound `COc1ccc(N2CCN(C(=O)CC3CCc4ccccc43)CC2)cc1` (configuration not stated), the melting point lay in the range of 111 to 112 °C.

In the case of `Nc1ccc(C2CCSCC2)c(F)c1`, the melting point was 96 to 98 °C.
